The supplement of paper PMC10307832

Assays:
Experiment in all cases: relative viability (nuclei count vs DMSO), 5 days (fraction); higher = more cells survive
A549 = test system: A549
Procedure, shortened: (§1)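 Lung cancer cell lines were pin-tool dosed in 1536-well plates on the day after seeding, with either a lone drug or a fixed anchor-drug dose plus five library-drug doses (not always all listed) in √10 steps. Nuclei were counted on 4× images after 5 days. Relative viability is the ratio of treated-well to vehicle-well nuclei counts, with each value a median of duplicate plates.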

CAL-12T = test system: CAL-12T
Procedure, shortened: as §1

Calu-6 = test system: Calu-6
Procedure, shortened: as §1

EBC-1 = test system: EBC-1
Procedure, shortened: as §1

IA-LM = test system: IA-LM
Procedure, shortened: as §1

LK-2 = test system: LK-2
Procedure, shortened: as §1

NCI-H1299 = test system: NCI-H1299
Procedure, shortened: as §1

NCI-H1703 = test system: NCI-H1703
Procedure, shortened: as §1

## O=C(O)c1ccc(-c2c[nH]c3ncc(-c4ccccc4)cc23)cc1C1CCCC1 + C[C@]1(O)C[C@@H](c2nc(-c3ccc4ccc(-c5ccccc5)nc4c3)c3c(N)nccn32)C1 [Linsitinib] (partner 1 µM)
A549; first compound 0.04 µM
  relative viability: 0.622
A549; first compound 0.1265 µM
  relative viability: 0.719
A549; first compound 0.4 µM
  relative viability: 0.717
A549; first compound 1.265 µM
  relative viability: 0.505
CAL-12T; first compound 0.04 µM
  relative viability: 0.799
CAL-12T; first compound 0.1265 µM
  relative viability: 0.834
CAL-12T; first compound 0.4 µM
  relative viability: 0.963
CAL-12T; first compound 1.265 µM
  relative viability: 0.6
Calu-6; first compound 0.04 µM
  relative viability: 0.86
Calu-6; first compound 0.1265 µM
  relative viability: 1.17
Calu-6; first compound 0.4 µM
  relative viability: 0.892
Calu-6; first compound 1.265 µM
  relative viability: 0.781
EBC-1; first compound 0.04 µM
  relative viability: 0.862
EBC-1; first compound 0.1265 µM
  relative viability: 0.903
EBC-1; first compound 0.4 µM
  relative viability: 0.956
EBC-1; first compound 1.265 µM
  relative viability: 0.697
IA-LM; first compound 0.04 µM
  relative viability: 0.558
IA-LM; first compound 0.1265 µM
  relative viability: 0.685
IA-LM; first compound 0.4 µM
  relative viability: 0.712
IA-LM; first compound 1.265 µM
  relative viability: 0.513
LK-2; first compound 0.04 µM
  relative viability: 0.667
LK-2; first compound 0.1265 µM
  relative viability: 0.587
LK-2; first compound 0.4 µM
  relative viability: 0.549
LK-2; first compound 1.265 µM
  relative viability: 0.902
NCI-H1299; first compound 0.04 µM
  relative viability: 0.933
NCI-H1299; first compound 0.1265 µM
  relative viability: 1.02
NCI-H1299; first compound 0.4 µM
  relative viability: 1.04
NCI-H1299; first compound 1.265 µM
  relative viability: 0.918
NCI-H1703; first compound 0.04 µM
  relative viability: 0.647
NCI-H1703; first compound 0.1265 µM
  relative viability: 1.06
NCI-H1703; first compound 0.4 µM
  relative viability: 1.06
NCI-H1703; first compound 1.265 µM
  relative viability: 0.898

## Oc1nc(-c2ccc(C(F)(F)F)cc2)nc2c1CSCC2 [XAV939] + C[C@]1(O)C[C@@H](c2nc(-c3ccc4ccc(-c5ccccc5)nc4c3)c3c(N)nccn32)C1 [Linsitinib] (partner 1 µM)
A549; first compound 0.08 µM
  relative viability: 0.696
A549; first compound 0.253 µM
  relative viability: 0.526
A549; first compound 0.8 µM
  relative viability: 0.486
A549; first compound 2.53 µM
  relative viability: 0.51
CAL-12T; first compound 0.08 µM
  relative viability: 0.87
CAL-12T; first compound 0.253 µM
  relative viability: 0.809
CAL-12T; first compound 0.8 µM
  relative viability: 0.667
CAL-12T; first compound 2.53 µM
  relative viability: 0.667
Calu-6; first compound 0.08 µM
  relative viability: 0.981
Calu-6; first compound 0.253 µM
  relative viability: 1.04
Calu-6; first compound 0.8 µM
  relative viability: 0.953
Calu-6; first compound 2.53 µM
  relative viability: 0.856
EBC-1; first compound 0.08 µM
  relative viability: 1.02
EBC-1; first compound 0.253 µM
  relative viability: 0.832
EBC-1; first compound 0.8 µM
  relative viability: 0.809
EBC-1; first compound 2.53 µM
  relative viability: 0.754
IA-LM; first compound 0.08 µM
  relative viability: 0.565
IA-LM; first compound 0.253 µM
  relative viability: 0.512
IA-LM; first compound 0.8 µM
  relative viability: 0.505
IA-LM; first compound 2.53 µM
  relative viability: 0.458
LK-2; first compound 0.08 µM
  relative viability: 0.514
LK-2; first compound 0.253 µM
  relative viability: 0.499
LK-2; first compound 0.8 µM
  relative viability: 0.42
LK-2; first compound 2.53 µM
  relative viability: 0.457
NCI-H1299; first compound 0.08 µM
  relative viability: 1.03
NCI-H1299; first compound 0.253 µM
  relative viability: 0.878
NCI-H1299; first compound 0.8 µM
  relative viability: 0.948
NCI-H1299; first compound 2.53 µM
  relative viability: 0.948
NCI-H1703; first compound 0.08 µM
  relative viability: 1.31
NCI-H1703; first compound 0.253 µM
  relative viability: 1.02
NCI-H1703; first compound 0.8 µM
  relative viability: 0.969
NCI-H1703; first compound 2.53 µM
  relative viability: 0.584

## C=C1C(=O)O[C@@H](CCCCCCCC)[C@@H]1C(=O)O [C-75] + Cc1nc(NC(=O)N2CCC[C@H]2C(N)=O)sc1-c1ccnc(C(C)(C)C(F)(F)F)c1 [Alpelisib] (partner 2 µM)
A549; first compound 0.08 µM
  relative viability: 0.828
A549; first compound 0.253 µM
  relative viability: 0.909
A549; first compound 0.8 µM
  relative viability: 0.824
A549; first compound 2.53 µM
  relative viability: 0.579
A549; first compound 8 µM
  relative viability: 0.716
CAL-12T; first compound 0.08 µM
  relative viability: 1.19
CAL-12T; first compound 0.253 µM
  relative viability: 1.47
CAL-12T; first compound 0.8 µM
  relative viability: 1.12
CAL-12T; first compound 8 µM
  relative viability: 1.33
Calu-6; first compound 0.08 µM
  relative viability: 1.04
Calu-6; first compound 0.253 µM
  relative viability: 0.926
Calu-6; first compound 0.8 µM
  relative viability: 0.983
Calu-6; first compound 2.53 µM
  relative viability: 0.796
Calu-6; first compound 8 µM
  relative viability: 0.932
EBC-1; first compound 0.08 µM
  relative viability: 0.904
EBC-1; first compound 0.253 µM
  relative viability: 0.763
EBC-1; first compound 0.8 µM
  relative viability: 0.792
EBC-1; first compound 2.53 µM
  relative viability: 0.7
EBC-1; first compound 8 µM
  relative viability: 0.712
IA-LM; first compound 0.08 µM
  relative viability: 0.71
IA-LM; first compound 0.253 µM
  relative viability: 0.815
IA-LM; first compound 0.8 µM
  relative viability: 0.74
IA-LM; first compound 2.53 µM
  relative viability: 0.648
IA-LM; first compound 8 µM
  relative viability: 0.761
LK-2; first compound 0.08 µM
  relative viability: 0.921
LK-2; first compound 0.253 µM
  relative viability: 0.771
LK-2; first compound 0.8 µM
  relative viability: 1.13
LK-2; first compound 2.53 µM
  relative viability: 1.28
LK-2; first compound 8 µM
  relative viability: 1
NCI-H1299; first compound 0.08 µM
  relative viability: 1.04
NCI-H1299; first compound 0.253 µM
  relative viability: 0.979
NCI-H1299; first compound 0.8 µM
  relative viability: 1.1
NCI-H1299; first compound 2.53 µM
  relative viability: 0.966
NCI-H1299; first compound 8 µM
  relative viability: 1.07
NCI-H1703; first compound 0.08 µM
  relative viability: 0.337
NCI-H1703; first compound 0.253 µM
  relative viability: 0.348
NCI-H1703; first compound 0.8 µM
  relative viability: 0.325
NCI-H1703; first compound 2.53 µM
  relative viability: 0.28
NCI-H1703; first compound 8 µM
  relative viability: 0.327
